{"source": "paper PMC11495047", "about": "(Journal of Virology, 2024)", "key": {"rNiV": {"test_system": "rNiV", "assay": "microbe, parasite or virus in culture", "type": "cell-based"}, "rCedV": {"test_system": "rCedV", "assay": "microbe, parasite or virus in culture", "type": "cell-based"}, "[1]": {"target": "CedV vRdRp (rCedV TC-tr minigenome) (Cedar virus, UniProt J7GXK9)", "type": "cell-based"}, "[2]": {"target": "GhV vRdRp (rGhV TC-tr minigenome) (Ghana virus, UniProt H9M6P4)", "type": "cell-based"}, "[3]": {"target": "NiV vRdRp (rNiV TC-tr minigenome) (Nipah virus, UniProt Q997F0)"}, "[4]": {"conditions": "in vivo; cited from earlier work"}}, "note": "Where two headings read alike, the source gives them in different places."}
{"smiles": "O=c1ccn([C@@H]2O[C@](F)(CO)[C@@H](O)[C@H]2O)c(=O)[nH]1", "note": "[EIDD-2749, 4′-Fluorouridine]", "values": [{"measurement": "IC50", "setting": "rNiV", "value": 2.9, "unit": "µM"}, {"measurement": "IC50", "setting": "rNiV; Henipavirus nipahense, BHK", "value": 2.6, "unit": "µM"}, {"measurement": "IC50", "setting": "rCedV; Cedar virus, BSR-T7/5, 24 h", "value": 0.7, "unit": "µM"}, {"measurement": "IC50", "setting": "[1]", "value": 2.1, "unit": "µM"}]}
{"smiles": "NC(=O)c1c(F)cccc1-c1cccc2cnccc12", "note": "[GHP-88309]", "values": [{"measurement": "IC50", "setting": "rCedV; read-out: IC50", "value": 1.6, "unit": "µM"}, {"measurement": "IC50", "setting": "[1]; read-out: IC50", "value": 5.7, "unit": "µM"}, {"measurement": "IC50", "setting": "[2]", "value": 1.7, "unit": "µM"}, {"measurement": "susceptibility of rNiV TC-tr minigenome", "setting": "[3]", "value": "no susceptibility"}, {"measurement": "oral bioavailability", "setting": "[4]", "value": "high oral bioavailability"}]}
